Results published in patent US20180327367A1, “MACROCYCLIC BROAD SPECTRUM ANTIBIOTICS” (priority 2015, published 2018).
Converted amounts (≈) assume the structure as drawn. Like-named read-outs stand apart in the source and are kept apart here.

Columns and labels:
[1] = tested on: Escherichia coli MC4100 harboring the IMP4213 (E. coli IMP); assay: microbe, parasite or virus in culture; assay type: cell-based; details: 35° C., 22 hours; for MIC (μg/mL) E. coli IMP: E. coli MC4100 IMP4213, increased outer-membrane permeability; for MIC: Escherichia coli, 22 h, read-out: MIC (μg/mL) E. coli IMP, E. coli MC4100 IMP4213, increased outer-membrane permeability
Summary of the method: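 Colonies grown 20 hours at 35° C were suspended in cation-adjusted Mueller Hinton Broth with 0.002% Tween-80. Cells were then added to 2-fold compound dilutions starting at 4 or 0.5 μg/mL, at OD600 0.0005.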

[2] = target: T1, SpsB (Staphylococcus aureus signal peptidase) (Staphylococcus aureus, UniProt P0A070); assay: cell-based; assay type: biochemical; details: SpsB IC50, whole-cell S. aureus (USA300 background, overexpressing SpsB) as SpsB source; fluorogenic peptide substrate, kinetic read 30 min
T1 construct: This assay uses a suspension of Staphylococcus aureus cells as a source of SpsB instead of recombinant SpsB protein; endogenous in cells; host or cells: S. aureus, USA300 background, overexpressing SpsB (whole-cell suspension from frozen pellets)
T1 sequence (P0A070 whole entry): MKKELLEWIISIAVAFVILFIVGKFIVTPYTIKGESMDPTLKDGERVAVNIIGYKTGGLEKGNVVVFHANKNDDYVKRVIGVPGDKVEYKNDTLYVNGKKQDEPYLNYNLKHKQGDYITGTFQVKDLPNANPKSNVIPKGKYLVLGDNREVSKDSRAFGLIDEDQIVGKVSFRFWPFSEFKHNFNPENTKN
Summary of the method: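 Whole S. aureus cells (USA300, overexpressing SpsB) in PBS with MgCl2, CaCl2 and 0.1% Tween-80 served as enzyme source, mixed with 20 μM stock of (Dabcyl)βAla-KPAKAAE(Edans) substrate before use. Fluorescence (ex 340/em 490 nm) read kinetically over 30 min. IC50 from reaction rate versus 11-point inhibitor concentration.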

[3] = tested on: Methicillin Resistant Staphylococcus aureus strain USA 300, NRS384; assay: Minimum inhibitory concentration, broth micro-dilution (CLSI), S. aureus; assay type: cell-based; details: 35° C., 22 hours; for MIC: Staphylococcus aureus, MRSA / NRS 384 / USA300, 22 h
Summary of the method: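 Ten-point 2-fold series began at 4 μg/mL in protocol 2 and 0.5 μg/mL in protocol 3, in cation-adjusted MHB plus 0.002% Tween-80. Bacteria added to OD600 0.0005 final and incubated at 35° C for 22 hours per CLSI microdilution.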

[4] = tested on: Escherichia coli ATCC 25922; assay: Minimum inhibitory concentration, broth micro-dilution (CLSI), E. coli; assay type: cell-based; details: 35° C., 22 hours; for MIC: Escherichia coli, ATCC25922, 22 h
[5] = MRSA USA 300 NRS384, read-out: MIC (μg/mL) S. aureus
[6] = E. coli ATCC 25922, read-out: MIC (μg/mL) E. coli
[7] = read-out: MIC (μg/mL) S. aureus, MRSA USA 300 NRS384
[8] = read-out: MIC (μg/mL) E. coli, E. coli ATCC 25922

In the case of Cc1cc(C2CC2c2ccccc2)ccc1C(=O)N[C@@H](CCN)C(=O)N(C)[C@@H]1C(=O)N[C@@H](C)C(=O)N[C@H](C(=O)NCC#N)Cc2ccc(OCCN)c(c2)-c2cc1ccc2OCCN (mixture of isomers) [Compound 440], the “MIC (μg/mL) E. coli IMP” value [1] is reported as 0.063 µg/mL, the IC50 [2] is reported as 0.81 nM and the “MIC (μg/mL) S. aureus” value ([3]; MRSA USA 300 NRS384) is reported as 0.19 µg/mL. For the same compound, the “MIC (μg/mL) E. coli” value ([4]; E. coli ATCC 25922) was 8 µg/mL.

Work on CCCCc1ccc(C(=O)N[C@@H](CCCN)C(=O)N(C)[C@@H]2C(=O)N[C@@H](C)C(=O)N[C@H](C(=O)NCC#N)Cc3ccc(OCCN)c(c3)-c3cc2ccc3OCCN)cc1 [Compound 127] yielded an MIC [1] of 0.063 µg/mL (≈ 0.0776 µM), an IC50 [2] of 5.9 nM and an MIC [3, 5] of 0.5 µg/mL (≈ 0.616 µM). The MIC [4, 6] was 4 µg/mL (≈ 4.93 µM).

In the case of CCCCCc1ccc(CNCCC(=O)N(C)[C@@H]2C(=O)N[C@@H](C)C(=O)N[C@H](C(=O)NCC#N)Cc3ccc(OCCN)c(c3)-c3cc2ccc3OCCN)c(C)c1 [Compound 462], the MIC [1] is reported as 4 µg/mL (≈ 5.11 µM), the IC50 [2] is reported as 0.81 nM and the MIC [3, 5] is reported as 0.094 µg/mL (≈ 0.12 µM). It also gave an MIC [4, 6] of 64 µg/mL (≈ 81.7 µM).

With CCCCCCCCCCCCCC(=O)N[C@@H](CCCN)C(=O)N(C)[C@@H]1C(=O)N[C@@H](C)C(=O)N[C@H](C(=O)NCC#N)Cc2ccc(OCCN)c(c2)-c2cc1ccc2OCCN [Compound 336] the MIC [1] was 0.023 µg/mL (≈ 0.0267 µM), the IC50 [2] was < 0.5 nM and the MIC [3, 5] was 0.063 µg/mL (≈ 0.0731 µM). For the same compound, the MIC [4, 6] was 0.25 µg/mL (≈ 0.29 µM).

In the case of CCCCCCCOc1ccc(C(=O)N[C@@H](CCN)C(=O)N(C)[C@@H]2C(=O)N[C@@H](C)C(=O)N[C@H](C(=O)NCC#N)Cc3ccc(OCCN)c(c3)-c3cc2ccc3OCCN)c(Cl)c1 [Compound 267], the MIC [1] is reported as 0.012 µg/mL (≈ 0.0135 µM), the IC50 [2] is reported as 0.63 nM and the MIC [3, 7] is reported as 0.027 µg/mL (≈ 0.0303 µM). The MIC [4, 8] was 0.13 µg/mL (≈ 0.146 µM).

CCCCCOc1ccc(C(=O)N[C@@H](CCN)C(=O)N(C)[C@@H]2C(=O)N[C@@H](C)C(=O)N[C@H](C(=O)NCC#N)Cc3ccc(OCCN)c(c3)-c3cc2ccc3OCCN)c(Cl)c1 [Compound 270] was tested, and the MIC [1] was 0.016 µg/mL (≈ 0.0186 µM), the IC50 [2] was 0.89 nM and the MIC [3, 5] was 0.094 µg/mL (≈ 0.109 µM). The MIC [4, 6] was 0.63 µg/mL (≈ 0.73 µM).

For Cc1cc(CCC(C)C)ccc1C(=O)N[C@@H](CCN)C(=O)N(C)[C@@H]1C(=O)N[C@@H](C)C(=O)N[C@H](C(=O)NCC#N)Cc2ccc(OCCN)c(c2)-c2cc1ccc2OCCN [Compound 217], the MIC [1] was 0.016 µg/mL (≈ 0.0194 µM), the IC50 [2] was 0.88 nM and the MIC [3, 5] was 0.094 µg/mL (≈ 0.114 µM). The MIC [4, 6] was 0.5 µg/mL (≈ 0.605 µM).

Cc1cc(C2CCC2)ccc1C(=O)N[C@@H](CCN)C(=O)N(C)[C@@H]1C(=O)N[C@@H](C)C(=O)N[C@H](C(=O)NCC#N)Cc2ccc(OCCN)c(c2)-c2cc1ccc2OCCN [Compound 214] gave an MIC [1] of 0.031 µg/mL (≈ 0.0383 µM), an IC50 [2] of 0.98 nM and an MIC [3, 5] of 0.25 µg/mL (≈ 0.309 µM). For the same compound, the MIC [4, 6] was 3 µg/mL (≈ 3.7 µM).

Compound CCCCCCCCCCCCCC(=O)N[C@@H](CN)C(=O)N(C)[C@@H]1C(=O)N[C@@H](C)C(=O)N[C@H](C(=O)N[C@@H](C)C#N)Cc2ccc(OCCN)c(c2)-c2cc1ccc2OCCN [Compound 342] has an MIC [1] of 0.063 µg/mL (≈ 0.0743 µM), an IC50 [2] of 1.3 nM and an MIC [3, 5] of 0.19 µg/mL (≈ 0.224 µM). For the same compound, the MIC [4, 6] was 0.5 µg/mL (≈ 0.59 µM).

CCCCCCCCCCNCCC(=O)N(C)[C@@H]1C(=O)N[C@@H](C)C(=O)N[C@H](C(=O)NCC#N)Cc2ccc(OCCN)c(c2)-c2cc1ccc2O [Compound 317] showed an MIC [1] of 1 µg/mL (≈ 1.42 µM), an IC50 [2] of 0.87 nM and an MIC [3, 5] of 0.094 µg/mL (≈ 0.133 µM). The MIC [4, 6] was 64 µg/mL (≈ 90.7 µM).

CCCCCCCCC(O)C(=O)NC(CO)C(=O)N(C)C1C(=O)NC(C)C(=O)NC(C(=O)NCC#N)Cc2ccc(OCCN)c(c2)-c2cc1ccc2OCCN (single isomer, unassigned) [Compound 393-P2] was tested, and the “MIC (μg/mL) E. coli IMP” value [1] was 2 µg/mL (≈ 2.52 µM), the IC50 [2] was 4.7 nM and the “MIC (μg/mL) S. aureus” value ([3]; MRSA USA 300 NRS384) was 1 µg/mL (≈ 1.26 µM). For the same compound, the “MIC (μg/mL) E. coli” value ([4]; E. coli ATCC 25922) was >64 µg/mL.

Compound CCCCc1cnc(-c2ccc(C(=O)N[C@@H](CCN)C(=O)N(C)[C@@H]3C(=O)N[C@@H](C)C(=O)N[C@H](C(=O)NCC#N)Cc4ccc(OCCN)c(c4)-c4cc3ccc4OCCN)c(C)c2)nc1 [Compound 175] has an MIC [1] of 0.0078 µg/mL (≈ 0.00876 µM), an IC50 [2] of 0.76 nM and an MIC [3, 5] of 0.13 µg/mL (≈ 0.146 µM). For the same compound, the MIC [4, 6] was 0.5 µg/mL (≈ 0.562 µM).

In the case of CCCCc1ccc(-c2ccc(C(=O)N[C@@H](CCN)C(=O)N(C)[C@@H]3C(=O)N[C@@H](C)C(=O)N[C@H](C(=O)NCC#N)Cc4ccc(OCCN)c(c4)-c4cc3ccc4OCCN)cc2)cc1 [Compound 338], the MIC [1] is reported as 0.023 µg/mL (≈ 0.0263 µM), the IC50 [2] is reported as < 0.5 nM and the MIC [3, 7] is reported as 0.063 µg/mL (≈ 0.0721 µM). For the same compound, the MIC [4, 8] was 0.19 µg/mL (≈ 0.217 µM).
